Measurements reported in ChEMBL document CHEMBL1139123, “Rational design and synthesis of novel nucleotide anti-Giardia agents” (Bioorg Med Chem Lett, 2007).
Converted amounts (≈) assume the structure as drawn.

Columns and labels:
[1] = Therapeutic index, ratio of IC50 for bovine MDBK cells to MIC for Giardia lamblia WB6; assay type: cell-based; settings: cattle
Giardia intestinalis [2] = assay: Antiprotozoal activity against Giardia lamblia WB6 trophozoites after 48 hrs; assay type: functional; settings: Giardia duodenalis, WB6, 48 h
[3] = Toxicity in bovine MDBK cells; settings: bovine (Bos taurus)
Giardia intestinalis [4] = assay: Antiprotozoal activity against Giardia lamblia WB6 assessed as inhibition of cyst formation at 10 uM after 4 days relative to control; assay type: functional; settings: Giardia duodenalis, WB6, 96 h

| MIC (Giardia intestinalis [2]) [µM] | Structure (SMILES) | selectivity ratio [1] | IC50 [3] [µM] | inhibition at 10 µM (Giardia intestinalis [4]) [%] |
| --- | --- | --- | --- | --- |
| 15.6 (≈ 3.83 µg/mL) | C=CC[C@H]1O[C@H](CO)[C@@H](O)[C@H](O)[C@H]1NC(C)=O | 17 | 60 | 9.7 |
| 3.9 (≈ 0.972 µg/mL) | CC(=O)N[C@@H]1[C@@H](O)[C@H](O)[C@@H](CO)O[C@@H]1CCO | 32 | 125 | 56.2 |
| 3.9 (≈ 2.16 µg/mL) | CC(=O)N[C@@H]1[C@@H](O)[C@H](O)[C@@H](CO)O[C@@H]1CCOP(=O)(O)CC[C@H]1O[C@@H](n2ccc(=O)[nH]c2=O)[C@H](O)[C@@H]1O | 64 | 250 | 27.5 |
